Assay results reported in US7868181B2, “Compounds” (AstraZeneca AB, priority 2007, dated 2011).
pIC50: −log10 of the molar value.

How the values were obtained:
human VR1 = target: T1, human VR1 (Homo sapiens, UniProt Q8NER1); assay: hVR1 FLIPR screening assay, IC50 determination (capsaicin); format: cell-based; details: CHO cells stably expressing hVR1; agonist capsaicin
T1 construct: expressed in transfected cells; host or cells: CHO cells
Protocol: hVR1FLIPR (Fluorometric Image Plate Reader) Screening Assay
Transfected CHO cells, stably expressing hVR1 (15,000 cells/well) are seeded in 50 μL media in a black clear bottom 384 plate (Greiner) and grown in a humidified incubator (37° C., 2% CO2), 24-30 hours prior to experiment.
Subsequently, the media is removed from the cell plate by inversion and 2 μM Fluo-4 is added using a multidrop (Labsystems). Following the 40 min dye incubation in the dark at 37° C. and 2% CO2, the extracellular dye present is washed away using an EMBLA (Scatron), leaving the cells in 40 μL of assay buffer (1×HBSS, 10 mM D-Glucose, 1 mM CaCl2, 10 mM HEPES, 10×7.5% NaHCO3 and 2.5 mM Probenecid).
FLIPR Assay—IC50 Determination Protocol
For IC50 determinations the fluorescence is read using FLIPR filter 1 (em […]). A cellular baseline recording is taken for 30 seconds, followed by a 20 μL addition of 10, titrated half-log concentrations of the test compound, yielding cellular concentration ranging from 3 μM to 0.1 nM. Data is collected every 2 seconds for a further 5 min prior to the addition of a VR1 agonist solution: either 50 nM solution of capsaicin or MES (2-[N-morpholino] ethanesulfonic acid) buffer (pH 5.2), by the FLIPR pipettor. The FLIPR continues to collect data for a further 4 min. Compounds having antagonistic properties against the hVR1 will inhibit the increase in intracellular calcium in response to the capsaicin addition. This consequently leading to a reduction in fluorescence signal and providing a reduced fluorescence reading, compared with no compound, buffer controls. Data is exported by the FLIPR program as a sum of fluorescence calculated under the curve upon the addition of capsaicin. Maximum inhibition, Hill slope and IC50 data for each compound are generated.

aldose reductase = target: T2, aldose reductase (Rattus norvegicus, UniProt P07943); assay: comparative aldose reductase activity determination (MDS Pharma Services); format: biochemical; details: carried out by MDS Pharma Services
T2 construct: MDS Pharma Services - Taiwan Ltd (contract laboratory that ran the assay)
Protocol: A comparative aldose reductase activity determination was carried out by the company MDS Pharma Services—Taiwan Ltd; the results of that study is set forth in Table 1 below.

[1] = test system: FCA-induced heat hyperalgesia; assay: Freund's Complete Adjuvant (FCA) model, heat plantar test (paw withdrawal latency); format: in vivo; details: rat, oral
[2] = test system: carrageenan-induced heat hyperalgesia; assay: Carrageenan model, heat plantar test (paw withdrawal latency); format: in vivo; details: rat, oral
[3] = tested at Tmax, reversal of heat hyperalgesia

T1 sequence (Q8NER1 whole entry): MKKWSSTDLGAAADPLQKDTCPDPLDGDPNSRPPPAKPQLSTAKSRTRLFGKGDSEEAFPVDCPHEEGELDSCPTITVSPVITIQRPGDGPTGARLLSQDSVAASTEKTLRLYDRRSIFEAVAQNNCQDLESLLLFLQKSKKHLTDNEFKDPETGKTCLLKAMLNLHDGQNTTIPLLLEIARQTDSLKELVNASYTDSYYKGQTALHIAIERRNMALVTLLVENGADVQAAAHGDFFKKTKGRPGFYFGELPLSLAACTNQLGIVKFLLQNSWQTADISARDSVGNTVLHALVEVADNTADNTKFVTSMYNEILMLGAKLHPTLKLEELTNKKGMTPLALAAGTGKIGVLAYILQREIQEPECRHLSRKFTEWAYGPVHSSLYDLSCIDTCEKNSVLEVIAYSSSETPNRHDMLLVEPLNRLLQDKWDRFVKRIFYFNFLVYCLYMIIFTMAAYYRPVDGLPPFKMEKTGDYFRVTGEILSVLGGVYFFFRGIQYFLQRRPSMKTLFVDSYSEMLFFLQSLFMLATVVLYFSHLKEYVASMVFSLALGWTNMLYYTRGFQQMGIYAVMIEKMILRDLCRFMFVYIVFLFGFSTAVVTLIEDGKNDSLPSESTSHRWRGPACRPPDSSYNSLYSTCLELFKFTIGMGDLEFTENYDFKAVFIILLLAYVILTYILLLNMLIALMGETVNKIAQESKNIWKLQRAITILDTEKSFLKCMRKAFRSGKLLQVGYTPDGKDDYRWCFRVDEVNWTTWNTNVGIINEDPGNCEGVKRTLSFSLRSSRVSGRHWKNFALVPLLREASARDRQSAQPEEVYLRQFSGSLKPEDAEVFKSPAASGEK

Row | Compound | pIC50 (human VR1) | pIC50 (aldose reductase) | also measured
1 | O=C1NC(=O)[C@]2(N1)C(=O)N(C/C=C/c1ccc(Cl)c(Cl)c1)c1ccccc12 (single isomer, unassigned) [Enantiomer 1A] | 5.00 | 7.60 | –
2 | O=C1NC(=O)[C@@]2(N1)C(=O)N(C/C=C/c1ccc(Cl)c(Cl)c1)c1ccccc12 (single isomer, unassigned) [Enantiomer 1B] | 7.37 | 6.12 | Extrapolated Emax ([1]; non-linear regression): >100%; EC80 ([1]; reversal of heat hyperalgesia): 100000 nM; Emax observed ([1]; reversal of heat hyperalgesia): 100%; EC50 [1, 3]: 24000 nM; ED50 [1, 3]: 52.8 µmol/kg; Extrapolated Emax ([2]; non-linear regression): 88%; EC80 ([2]; reversal of heat hyperalgesia): 10700 nM; Emax observed ([2]; reversal of heat hyperalgesia): 76%; EC50 [2, 3]: 4800 nM; ED50 [2, 3]: 10.6 µmol/kg
3 | O=C1NC(=O)[C@]2(N1)C(=O)N(C/C=C/c1ccc(Cl)c(C(F)(F)F)c1)c1ccccc12 (single isomer, unassigned) [Enantiomer 2A] | 5.41 | 7.48 | –
4 | O=C1NC(=O)[C@@]2(N1)C(=O)N(C/C=C/c1ccc(Cl)c(C(F)(F)F)c1)c1ccccc12 (single isomer, unassigned) [Enantiomer 2B] | 6.62 | 5.48 | –
5 | O=C1NC(=O)[C@]2(N1)C(=O)N(CC#Cc1ccc(Cl)c(Cl)c1)c1ccccc12 (single isomer, unassigned) [Enantiomer 3A] | 4.81 | 7.14 | –
6 | O=C1NC(=O)[C@@]2(N1)C(=O)N(CC#Cc1ccc(Cl)c(Cl)c1)c1ccccc12 (single isomer, unassigned) [Enantiomer 3B] | 6.06 | 6.01 | –
